Where “and” joins values, the source holds several entries; their conditions need not be identical. Equal entries are not always repeated. Where two headings read alike, the source gives them in different places. Positions of bridges follow the written chain, without caps; N, C: chain ends. Residues, ends and D or L forms follow the SMILES beside them.
Biological target: T1, human plasma IgG3 (Homo sapiens, UniProt P01860)
T1 construct: the individual human plasma IgG isoforms: IgG1, IgG2, IgG3, or IgG4; purchased Calbiochem; host or cells: human plasma
T1 sequence (P01860 1-377 isoform P01860-1): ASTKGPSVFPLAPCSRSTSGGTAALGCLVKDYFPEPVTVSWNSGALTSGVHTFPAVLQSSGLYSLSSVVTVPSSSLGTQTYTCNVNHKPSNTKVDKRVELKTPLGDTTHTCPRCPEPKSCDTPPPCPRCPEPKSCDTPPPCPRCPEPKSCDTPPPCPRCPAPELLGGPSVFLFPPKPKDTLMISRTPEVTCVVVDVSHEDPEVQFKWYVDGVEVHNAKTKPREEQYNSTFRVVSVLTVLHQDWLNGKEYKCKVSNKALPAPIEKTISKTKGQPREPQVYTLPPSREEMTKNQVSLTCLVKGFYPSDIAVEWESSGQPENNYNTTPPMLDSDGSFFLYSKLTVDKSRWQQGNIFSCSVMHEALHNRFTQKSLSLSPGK
Assay: Fluorescence anisotropy binding, Oregon Green labeled peptide

[1] = 10 nM Tris-HCl, 500 mM Sodium Chloride, pH 7.5, read-out: KD (μM) IgG3 pH 7.5 + salt
[2] = 10 mM Sodium Bicarbonate, 500 mM Sodium Chloride, pH 9.5, read-out: KD (μM) IgG3 pH 9.5 + salt
[3] = 10 mM Sodium Bicarbonate, pH 9.5, read-out: KD (μM) IgG3 pH 9.5 − salt
[4] = 10 mM Sodium Citrate, 500 mM Sodium Chloride, pH 4.0, read-out: KD (μM) IgG3 pH 4.0 + salt
[5] = 10 mM Sodium Citrate, pH 4.0, read-out: KD (μM) IgG3 pH 4.0 − salt
[6] = 10 mM Tris-HCl, pH 7.5, read-out: KD (μM) IgG3 pH 7.5 − salt
[7] = TBS, 0.01% Tween 20, pH 7.5, read-out: KD (μM) IgG3 TBS

Structure (SMILES) | Kd [1] [µM] | Kd [2] [µM] | Kd [3] [µM] | Kd [4] [µM] | Kd [5] | Kd [6] [µM] | Kd [7] [µM]
CC(=O)N[C@@H](C)C(=O)NCC(=O)N1CCC[C@H]1C(=O)N[C@@H](Cc1c[nH]cn1)C(=O)N[C@@H](CC(N)=O)C(=O)N[C@H]1CSSC[C@@H](C(=O)N[C@@H](CCCCN)C(=O)N[C@@H](Cc2c[nH]c3ccccc23)C(=O)N[C@@H](Cc2ccccc2)C(=O)N2CCC[C@H]2C(=O)NCC(=O)N2CCC[C@H]2C(=O)N[C@@H](CCC(=O)O)C(=O)NCC(=O)NCC(=O)NCC(=O)N[C@@H](CCCCN)C(N)=O)NC(=O)[C@H](Cc2ccc(O)cc2)NC(=O)[C@H](Cc2c[nH]c3ccccc23)NC(=O)[C@H](Cc2ccc(O)cc2)NC(=O)[C@H](Cc2c[nH]cn2)NC(=O)[C@H](CC(=O)O)NC(=O)[C@H](CC(=O)O)NC1=O [DX389] (Ac-AGPHNCDDHYWYCKWFPGPEGGGK-NH2; disulfide 6-13 (inferred)) | > 10 | > 10 | > 10 | ~2 | ~2 µM | > 10 | > 10
CC[C@H](C)[C@@H]1NC(=O)[C@H](CCCCN)NC(=O)[C@@H](NC(=O)[C@H](Cc2c[nH]c3ccccc23)NC(=O)[C@H](Cc2ccc(O)cc2)NC(=O)[C@H](CO)NC(=O)CNC(=O)[C@H](C)NC(C)=O)CSSC[C@@H](C(=O)N2CCC[C@H]2C(=O)N[C@@H](CCC(N)=O)C(=O)N[C@@H](CO)C(=O)N2CCC[C@H]2C(=O)NCC(=O)N2CCC[C@H]2C(=O)N[C@@H](CCC(=O)O)C(=O)NCC(=O)NCC(=O)NCC(=O)N[C@@H](CCCCN)C(N)=O)NC(=O)[C@H](C(C)C)NC(=O)[C@H](CC(=O)O)NC(=O)[C@H](Cc2c[nH]c3ccccc23)NC1=O [DX392] (Ac-AGSYWCKIWDVCPQSPGPEGGGK-NH2; disulfide 6-12 (inferred)) | > 10 | > 10 | > 10 | 0.3 to 0.6 | 0.3 to 0.6 µM | > 10 | > 10
CC(=O)N[C@@H](C)C(=O)NCC(=O)N[C@@H](CCCCN)C(=O)N[C@@H](Cc1ccc(O)cc1)C(=O)N[C@@H](Cc1c[nH]c2ccccc12)C(=O)N[C@H]1CSSC[C@@H](C(=O)N2CCC[C@H]2C(=O)N[C@@H](C)C(=O)N[C@@H](CC(N)=O)C(=O)N2CCC[C@H]2C(=O)NCC(=O)N2CCC[C@H]2C(=O)N[C@@H](CCC(=O)O)C(=O)NCC(=O)NCC(=O)NCC(=O)N[C@@H](CCCCN)C(N)=O)NC(=O)[C@H](C(C)C)NC(=O)CNC(=O)[C@H](Cc2c[nH]c3ccccc23)NC(=O)[C@H](CC(C)C)NC(=O)[C@H](CC(N)=O)NC1=O [DX395] | – | > 10 | > 10 | 1 to 2 | 1 ± 0.26 µM | > 10 | > 10
CC(=O)N[C@@H](C)C(=O)NCC(=O)N[C@@H](C)C(=O)N[C@@H](C)C(=O)N[C@H](C(=O)N[C@H]1CSSC[C@@H](C(=O)N[C@H](C(=O)N[C@@H](CC(=O)O)C(=O)N[C@@H](CO)C(=O)N2CCC[C@H]2C(=O)NCC(=O)N2CCC[C@H]2C(=O)N[C@@H](CCC(=O)O)C(=O)NCC(=O)NCC(=O)NCC(=O)N[C@@H](CCCCN)C(N)=O)[C@@H](C)O)NC(=O)[C@H](Cc2ccccc2)NC(=O)[C@H](Cc2c[nH]c3ccccc23)NC(=O)[C@H](CCC(N)=O)NC(=O)[C@H](Cc2ccc(O)cc2)NC(=O)[C@H](Cc2ccc(O)cc2)NC(=O)[C@H](Cc2c[nH]c3ccccc23)NC(=O)[C@H](Cc2ccc(O)cc2)NC(=O)[C@H](CO)NC(=O)[C@H]([C@@H](C)O)NC(=O)[C@H](CO)NC1=O)[C@@H](C)O [DX398] | 0.3 ± 0.03 | 0.3 ± 0.1 | > 10 | 0.04 to 0.3 | ~0.02 µM and 0.02 µM | > 10 | > 10
